{"source": "paper PMC10787398", "about": "“Simultaneous determination of colistin sulfate and tigecycline in human plasma by liquid chromatography-tandem mass spectrometry method” (BMC Chemistry, 2024)", "key": {"[1]": {"assay": "Stability of analytes in spiked plasma samples under storage conditions", "format": "in vitro ADME, human", "details": "for Measured value, Stored at -80℃ for 7 days / Measured value, Automatic sampler 15℃ for 24 h / Measured value, Freeze-thaw for 3 cycles / Measured value, At 4℃ for 12 h / Measured value, At room temperature for 6 h: HPLC-MS/MS, n = 5; for Measured value, Automatic sampler 15℃ for 24 h: automatic sampler 15 ℃ 24 h; for Measured value, Freeze-thaw for 3 cycles: frozen at -80 °C and thawed at room temperature; for Measured value, At 4℃ for 12 h: refrigerator 4 °C 12 h", "description": "Plasma samples with low, medium, and high mass concentrations were prepared (the mass concentrations of colistin sulfate were 0.1, 1, and 8 µg/mL, respectively, and those of tigecycline were 0.05, 0.5, and 4 µg/mL, respectively). Five replicates of each concentration were prepared and placed in a refrigerator at 4 °C for 12 h, at room temperature for 6 h, and in an automatic sampler at 15 ℃ for 24 h. The samples were, on three occasions, frozen at − 80 °C and thawed at room temperature, and then placed in a − 80 °C refrigerator for seven days. The concentrations and RSDs of colistin sulfate and tigecycline in the plasma samples were calculated based on the accompanying standard curve of the day to evaluate their stabilities."}, "[2]": {"assay": "Plasma trough and peak concentrations in patients on intravenous polymyxin and tigecycline (HPLC-MS/MS)", "details": "First dose 100 mg maintenance dose 50 mg q12h iv, plasma, HPLC-MS/MS; for Tigecycline Peak concentration: 30 min after 7th administration; for Tigecycline Trough concentration: before 7th administration", "description": "Plasma samples were collected from patients receiving simultaneous intravenous polymyxin and tigecycline treatment. Inclusion criteria: ① Patients receiving simultaneous intravenous polymyxin and tigecycline treatment; ② Age ≥ 18 years; ③ Patients who consent to the monitoring of polymyxin and tigecycline blood drug concentrations during treatment. Exclusion criteria: ① Pregnant or lactating women; ② Treatment duration < 3 days; ③ Local administration; ④ Blood dialysis treatment. Once the blood drug concentration reached a steady state, 3 ml of venous blood was collected before and 30 min after the seventh administration to measure the peak and trough concentrations. This study was conducted with approval from the Ethics Committee of Second Hospital of Hebei Medical University (2020-R551). This study was conducted in accordance with the declaration of Helsinki.\nTwo hundred microliters of the plasma sample were adopted, with 20 µL of the internal standard added, and it was vortexed for 20 s. Two hundred microliters of 5% trichloroacetic acid was added for acidification and vortexed for 10 s. Two hundred microliters of methanol was added for extraction, vortexed for 2 min, and centrifuged at 10,900 r/min for 5 min. Two hundred microliters of the supernatant were aspirated into the injection bottle, and 10 µL of the sample was injected for the HPLC–MS/MS analysis.\nAll patients received an initial dose of 100 mg and a maintenance dose of 50 mg q12h for tigecycline. Three milliliters of venous blood were collected before and after the seventh administration to measure the peak and trough concentrations of the drugs."}, "[3]": {"details": "plasma QC high, nominal colistin sulfate 8 µg/mL, tigecycline 4 µg/mL"}, "[4]": {"details": "plasma QC low, nominal colistin sulfate 0.1 µg/mL, tigecycline 0.05 µg/mL"}, "[5]": {"details": "plasma QC medium, nominal colistin sulfate 1 µg/mL, tigecycline 0.5 µg/mL"}, "[6]": {"details": "patient 1 (BMI 27.04 kg/m^2, CrCL 107 ml/min, ALB 33.8 g/L)"}, "[7]": {"details": "patient 2 (BMI 27.69 kg/m^2, CrCL 36 ml/min, ALB 30.35 g/L)"}, "[8]": {"details": "patient 3 (BMI 23.88 kg/m^2, CrCL 90 ml/min, ALB 26.80 g/L)"}, "[9]": {"details": "patient 4 (BMI 18.72 kg/m^2, CrCL 111 ml/min, ALB 32.50 g/L)"}, "[10]": {"details": "patient 5 (BMI 22.14 kg/m^2, CrCL 84 ml/min, ALB 28.00 g/L)"}, "[11]": {"details": "patient 6 (Femaee, BMI 19.3 kg/m^2, CrCL 161 ml/min, ALB 35.3 g/L)"}, "[12]": {"details": "patient 7 (BMI 24.16 kg/m^2, CrCL 59 ml/min, ALB 36.72 g/L)"}, "[13]": {"details": "patient 8 (BMI 27.44 kg/m^2, CrCL 98 ml/min, ALB 33.30 g/L)"}, "[14]": {"details": "patient 9 (BMI 20.91 kg/m^2, CrCL 106 ml/min, ALB 32.71 g/L)"}, "[15]": {"details": "patient 10 (BMI 21.95 kg/m^2, CrCL 129 ml/min, ALB 31.89 g/L)"}, "[16]": {"details": "patient 11 (BMI 22.51 kg/m^2, CrCL 27 ml/min, ALB 27.10 g/L)"}, "[17]": {"details": "patient 12 (BMI 23.71 kg/m^2, CrCL 170 ml/min, ALB 32.50 g/L)"}}, "data": [{"smiles": "CN(C)c1cc(NC(=O)CNC(C)(C)C)c(O)c2c1C[C@H]1C[C@H]3[C@H](N(C)C)C(O)=C(C(N)=O)C(=O)[C@@]3(O)C(O)=C1C2=O", "note": "[Tigecycline, tigecycline]", "values": [{"measurement": "Measured value, Stored at -80℃ for 7 days", "setting": "[1]; plasma QC high, nominal colistin sulfate 8 µg/mL, tigecycline 4 µg/mL, -80 °C 7 days", "result": "4.30 ± 0.03", "unit": "µg/mL"}, {"measurement": "Measured value, Automatic sampler 15℃ for 24 h", "setting": "[1]; [3]", "result": "4.00 ± 0.26", "unit": "µg/mL"}, {"measurement": "Measured value, Freeze-thaw for 3 cycles", "setting": "[1]; [3]", "result": "3.82 ± 0.45", "unit": "µg/mL"}, {"measurement": "Measured value, At 4℃ for 12 h", "setting": "[1]; [3]", "result": "3.93 ± 0.36", "unit": "µg/mL"}, {"measurement": "Measured value, At room temperature for 6 h", "setting": "[1]; plasma QC high, nominal colistin sulfate 8 µg/mL, tigecycline 4 µg/mL, room temperature 6 h", "result": "4.87 ± 0.07", "unit": "µg/mL"}, {"measurement": "Measured value, Stored at -80℃ for 7 days", "setting": "[1]; plasma QC low, nominal colistin sulfate 0.1 µg/mL, tigecycline 0.05 µg/mL, -80 °C 7 days", "result": "0.05 ± 0.00", "unit": "µg/mL"}, {"measurement": "Measured value, Automatic sampler 15℃ for 24 h", "setting": "[1]; [4]", "result": "0.05 ± 0.00", "unit": "µg/mL"}, {"measurement": "Measured value, Freeze-thaw for 3 cycles", "setting": "[1]; [4]", "result": "0.05 ± 0.00", "unit": "µg/mL"}, {"measurement": "Measured value, At 4℃ for 12 h", "setting": "[1]; [4]", "result": "0.05 ± 0.00", "unit": "µg/mL"}, {"measurement": "Measured value, At room temperature for 6 h", "setting": "[1]; plasma QC low, nominal colistin sulfate 0.1 µg/mL, tigecycline 0.05 µg/mL, room temperature 6 h", "result": "0.05 ± 0.00", "unit": "µg/mL"}, {"measurement": "Measured value, Stored at -80℃ for 7 days", "setting": "[1]; plasma QC medium, nominal colistin sulfate 1 µg/mL, tigecycline 0.5 µg/mL, -80 °C 7 days", "result": "0.46 ± 0.03", "unit": "µg/mL"}, {"measurement": "Measured value, Automatic sampler 15℃ for 24 h", "setting": "[1]; [5]", "result": "0.49 ± 0.03", "unit": "µg/mL"}, {"measurement": "Measured value, Freeze-thaw for 3 cycles", "setting": "[1]; [5]", "result": "0.52 ± 0.04", "unit": "µg/mL"}, {"measurement": "Measured value, At 4℃ for 12 h", "setting": "[1]; [5]", "result": "0.46 ± 0.01", "unit": "µg/mL"}, {"measurement": "Measured value, At room temperature for 6 h", "setting": "[1]; plasma QC medium, nominal colistin sulfate 1 µg/mL, tigecycline 0.5 µg/mL, room temperature 6 h", "result": "0.54 ± 0.03", "unit": "µg/mL"}, {"measurement": "stability under the above conditions", "setting": "[1]; plasma samples, 4 °C 12 h, room temperature 6 h, autosampler 15 ℃ 24 h, 3 freeze-thaw cycles, -80 °C 7 days", "result": "good stability"}, {"measurement": "Tigecycline Peak concentration", "setting": "[2]; [6]", "result": 1.72, "unit": "µg/mL"}, {"measurement": "Tigecycline Trough concentration", "setting": "[2]; [6]", "result": 0.79, "unit": "µg/mL"}, {"measurement": "Tigecycline Peak concentration", "setting": "[2]; [7]", "result": 1.68, "unit": "µg/mL"}, {"measurement": "Tigecycline Trough concentration", "setting": "[2]; [7]", "result": 0.81, "unit": "µg/mL"}, {"measurement": "Tigecycline Peak concentration", "setting": "[2]; [8]", "result": 1.67, "unit": "µg/mL"}, {"measurement": "Tigecycline Trough concentration", "setting": "[2]; [8]", "result": 0.77, "unit": "µg/mL"}, {"measurement": "Tigecycline Peak concentration", "setting": "[2]; [9]", "result": 1.47, "unit": "µg/mL"}, {"measurement": "Tigecycline Trough concentration", "setting": "[2]; [9]", "result": 0.69, "unit": "µg/mL"}, {"measurement": "Tigecycline Peak concentration", "setting": "[2]; [10]", "result": 1.17, "unit": "µg/mL"}, {"measurement": "Tigecycline Trough concentration", "setting": "[2]; [10]", "result": 0.58, "unit": "µg/mL"}, {"measurement": "Tigecycline Peak concentration", "setting": "[2]; [11]", "result": 1.11, "unit": "µg/mL"}, {"measurement": "Tigecycline Trough concentration", "setting": "[2]; [11]", "result": 0.66, "unit": "µg/mL"}, {"measurement": "Tigecycline Peak concentration", "setting": "[2]; [12]", "result": 1.01, "unit": "µg/mL"}, {"measurement": "Tigecycline Trough concentration", "setting": "[2]; [12]", "result": 0.58, "unit": "µg/mL"}, {"measurement": "Tigecycline Peak concentration", "setting": "[2]; [13]", "result": 0.92, "unit": "µg/mL"}, {"measurement": "Tigecycline Trough concentration", "setting": "[2]; [13]", "result": 0.63, "unit": "µg/mL"}, {"measurement": "Tigecycline Peak concentration", "setting": "[2]; [14]", "result": 1.22, "unit": "µg/mL"}, {"measurement": "Tigecycline Trough concentration", "setting": "[2]; [14]", "result": 0.65, "unit": "µg/mL"}, {"measurement": "Tigecycline Peak concentration", "setting": "[2]; [15]", "result": 1.08, "unit": "µg/mL"}, {"measurement": "Tigecycline Trough concentration", "setting": "[2]; [15]", "result": 0.33, "unit": "µg/mL"}, {"measurement": "Tigecycline Peak concentration", "setting": "[2]; [16]", "result": 0.99, "unit": "µg/mL"}, {"measurement": "Tigecycline Trough concentration", "setting": "[2]; [16]", "result": 0.25, "unit": "µg/mL"}, {"measurement": "Tigecycline Peak concentration", "setting": "[2]; [17]", "result": 1.78, "unit": "µg/mL"}, {"measurement": "Tigecycline Trough concentration", "setting": "[2]; [17]", "result": 0.48, "unit": "µg/mL"}]}]}
